pIC50: −log10 of the molar value.

The subject of one test is Colon 26. In words: Cytotoxic activity was determined against Colon 26 adenocarcinoma cells. To be noted: Mus musculus. The format is functional, cell-based.
The species entered for another test is Bos taurus. In words: Inhibitory activity was determined against tubulin polymerization of bovine brain tubulin. Type of test: functional.

As for `COc1cnc(/C=C\c2cc(OC)c(OC)c(OC)c2)nc1`, the pIC50 is less than 5.52 in the test with Colon 26 and less than 5.00 in the test filed under Bos taurus.
For `COc1ccc(/C=C\c2cc(OC)c(OC)c(OC)c2)cn1`, the negative logarithm of the IC50 (pIC50) in the test on Colon 26 was 7.53; in the test filed under Bos taurus, 5.70.
Consider `COc1cc(/C=C\c2ccc(=O)n(C)c2)cc(OC)c1OC`, for which the pIC50 in the test on Colon 26 was less than 5.52; in the test listed under Bos taurus, less than 5.00.
For the molecule `COc1ccc(/C=C\c2cc(OC)c(OC)c(OC)c2)nn1`, the pIC50 is less than 5.52 in the test on Colon 26 and less than 5.00 in the test listed under Bos taurus.
On to `COc1cc(/C=C\c2cc[n+]([O-])cc2)cc(OC)c1OC`, for which the results for the pIC50 in the test on Colon 26 and in the test filed under Bos taurus were less than 5.52 and less than 5.00, respectively.
`COc1cnc(/C=C\c2cc(OC)c(OC)c(OC)c2)cn1`: the values for the pIC50 in the test with Colon 26 and in the test listed under Bos taurus were 6.06 and 5.05, respectively.
Regarding `COc1ncc(/C=C\c2cc(OC)c(OC)c(OC)c2)cn1`, the pIC50 with Colon 26 was 6.56; in the test filed under Bos taurus, 5.52.
The matching figures for `COc1ccc(/C=C\c2cc(OC)c(OC)c(OC)c2)nc1`: 6.74 and 5.52.
For the molecule `COc1cc(/C=C\c2cc[n+](C)cc2)cc(OC)c1OC`, in the test on Colon 26, the pIC50 is less than 5.52.
Turning to `COc1cc(/C=C\c2ccn(C)c(=O)c2)cc(OC)c1OC`, the pIC50 in the test on Colon 26 is 7.72; in the test listed under Bos taurus it was 5.70.
On to `COc1ccc(/C=C\c2cc(OC)c(OC)c(OC)c2)cc1N`, for which the pIC50 in the test listed under Bos taurus was 6.00.
For `COc1ccc(/C=C\c2cc(OC)c(OC)c(OC)c2)cc1O` [COMBRETASTATIN A4], the negative logarithm of the IC50 (pIC50) with Colon 26 is 8.06; in the test listed under Bos taurus it was 5.70.

For the origin of these results see ChEMBL document CHEMBL1130692, “Novel B-ring modified combretastatin analogues: syntheses and antineoplastic activity” (Bioorg Med Chem Lett, 1998).
